Experiments:
CAI = CAI (Homo sapiens, UniProt P00915); assay: fluorescent thermal shift assay (FTSA), CAI; assay type: binding; conditions: 37 °C; for ΔGintr CAI: converted from Kd_intr, independent of pH; for ΔGobs CAI: converted from Kd_obs, pH 7.0, FTSA
CAII = CAII (Homo sapiens, UniProt P00918); assay: fluorescent thermal shift assay (FTSA), CAII; assay type: binding; conditions: 37 °C; for ΔGintr CAII: converted from Kd_intr, independent of pH; for ΔGobs CAII: converted from Kd_obs, pH 7.0, FTSA
CAIV = CAIV (Homo sapiens, UniProt P22748); assay: fluorescent thermal shift assay (FTSA), CAIV; assay type: binding; conditions: 37 °C; for ΔGintr CAIV: converted from Kd_intr, independent of pH; for ΔGobs CAIV: converted from Kd_obs, pH 7.0, FTSA
CAVB = CAVB (Homo sapiens, UniProt Q9Y2D0); assay: fluorescent thermal shift assay (FTSA), CAVB; assay type: binding; conditions: 37 °C; for ΔGintr CAVB: converted from Kd_intr, independent of pH; for ΔGobs CAVB: converted from Kd_obs, pH 7.0, FTSA
CAVI = CAVI (Homo sapiens, UniProt P23280); assay: fluorescent thermal shift assay (FTSA), CAVI; assay type: binding; conditions: 37 °C; for ΔGintr CAVI: converted from Kd_intr, independent of pH; for ΔGobs CAVI: converted from Kd_obs, pH 7.0, FTSA
CAVII = CAVII (Homo sapiens, UniProt P43166); assay: fluorescent thermal shift assay (FTSA), CAVII; assay type: binding; conditions: 37 °C; for ΔGobs CAVII: converted from Kd_obs, pH 7.0, FTSA; for ΔGintr CAVII: converted from Kd_intr, independent of pH
CAIX = CAIX (Homo sapiens, UniProt Q16790); assay: fluorescent thermal shift assay (FTSA), CAIX; assay type: binding; conditions: for ΔGobs CAIX: pH 7
CAXIII = CAXIII (Homo sapiens, UniProt Q8N1Q1); assay: fluorescent thermal shift assay (FTSA), CAXIII; assay type: binding; conditions: 37 °C; for ΔGintr CAXIII: converted from Kd_intr, independent of pH; for ΔGobs CAXIII: converted from Kd_obs, pH 7.0, FTSA
CAXIV = CAXIV (Homo sapiens, UniProt Q9ULX7); assay: fluorescent thermal shift assay (FTSA), CAXIV; assay type: binding; conditions: 37 °C; for ΔGintr CAXIV: converted from Kd_intr, independent of pH; for ΔGobs CAXIV: converted from Kd_obs, pH 7.0, FTSA
[1] = determination of pKa of the sulfonamide group by UV-VIS spectra at various pH; assay type: physicochemical; conditions: for f RSO2NH-, fraction of deprotonated sulfonamide: at pH 7.0, calculated from pKa; for pKa: calculated from spectra at various pH, 37 °C
CAIII = CAIII (Homo sapiens, UniProt P07451); assay: fluorescent thermal shift assay (FTSA), CAIII; assay type: binding; conditions: 37 °C; for ΔGintr CAIII: converted from Kd_intr, independent of pH; for ΔGobs CAIII: converted from Kd_obs, pH 7.0, FTSA
CAVA = CAVA (Homo sapiens, UniProt P35218); assay: fluorescent thermal shift assay (FTSA), CAVA; assay type: binding; conditions: 37 °C; for ΔGintr CAVA: converted from Kd_intr, independent of pH; for ΔGobs CAVA: converted from Kd_obs, pH 7.0, FTSA
CAVA, sequence (P35218 39-305): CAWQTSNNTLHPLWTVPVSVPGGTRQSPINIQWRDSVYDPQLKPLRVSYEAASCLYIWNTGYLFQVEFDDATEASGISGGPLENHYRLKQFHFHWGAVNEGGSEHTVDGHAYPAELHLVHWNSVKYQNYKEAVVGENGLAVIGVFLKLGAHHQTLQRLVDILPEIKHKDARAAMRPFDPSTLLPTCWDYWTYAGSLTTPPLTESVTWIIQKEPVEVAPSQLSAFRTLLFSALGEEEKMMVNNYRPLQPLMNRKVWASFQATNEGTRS

CAVB, sequence (Q9Y2D0 34-317): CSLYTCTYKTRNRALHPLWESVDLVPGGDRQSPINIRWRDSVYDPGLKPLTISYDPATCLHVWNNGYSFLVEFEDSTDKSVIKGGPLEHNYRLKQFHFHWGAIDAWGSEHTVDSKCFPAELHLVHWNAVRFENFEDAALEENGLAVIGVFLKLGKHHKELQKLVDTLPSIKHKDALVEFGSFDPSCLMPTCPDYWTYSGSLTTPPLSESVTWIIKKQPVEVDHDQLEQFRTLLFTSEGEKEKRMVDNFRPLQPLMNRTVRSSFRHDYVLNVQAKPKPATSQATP
CAI, sequence (P00915 whole entry): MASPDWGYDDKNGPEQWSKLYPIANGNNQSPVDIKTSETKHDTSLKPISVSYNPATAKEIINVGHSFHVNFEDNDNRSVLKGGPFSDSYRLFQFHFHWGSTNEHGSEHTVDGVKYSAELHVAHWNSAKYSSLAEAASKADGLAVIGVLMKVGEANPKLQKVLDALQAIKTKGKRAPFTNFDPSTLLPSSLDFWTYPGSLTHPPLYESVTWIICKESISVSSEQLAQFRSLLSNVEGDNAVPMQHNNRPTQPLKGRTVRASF
CAIII, sequence (P07451 whole entry): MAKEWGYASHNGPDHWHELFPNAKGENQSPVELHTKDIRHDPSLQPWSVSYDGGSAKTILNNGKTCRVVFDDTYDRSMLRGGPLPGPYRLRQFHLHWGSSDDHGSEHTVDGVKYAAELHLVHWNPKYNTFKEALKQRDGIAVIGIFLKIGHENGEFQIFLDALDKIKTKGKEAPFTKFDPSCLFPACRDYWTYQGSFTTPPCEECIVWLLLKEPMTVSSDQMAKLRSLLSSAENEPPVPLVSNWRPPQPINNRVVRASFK
CAIV, sequence (P22748 19-312): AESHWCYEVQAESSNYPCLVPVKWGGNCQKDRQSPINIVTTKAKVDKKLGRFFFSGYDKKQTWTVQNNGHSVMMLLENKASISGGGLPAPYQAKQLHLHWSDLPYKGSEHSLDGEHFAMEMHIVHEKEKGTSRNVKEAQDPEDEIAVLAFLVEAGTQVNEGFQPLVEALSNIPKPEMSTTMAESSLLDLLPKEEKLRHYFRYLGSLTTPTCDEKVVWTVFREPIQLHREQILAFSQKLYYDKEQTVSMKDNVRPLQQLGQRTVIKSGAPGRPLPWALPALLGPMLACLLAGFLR
CAVII, sequence (P43166 whole entry): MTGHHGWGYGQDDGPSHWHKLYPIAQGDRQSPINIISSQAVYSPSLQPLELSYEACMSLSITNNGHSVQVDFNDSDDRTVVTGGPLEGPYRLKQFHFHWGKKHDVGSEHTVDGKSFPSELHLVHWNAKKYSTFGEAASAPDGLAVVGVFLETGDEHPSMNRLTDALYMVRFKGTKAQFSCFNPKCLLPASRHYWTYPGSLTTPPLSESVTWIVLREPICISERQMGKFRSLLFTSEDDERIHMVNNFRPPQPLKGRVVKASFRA
CAVI, sequence (P23280 18-308): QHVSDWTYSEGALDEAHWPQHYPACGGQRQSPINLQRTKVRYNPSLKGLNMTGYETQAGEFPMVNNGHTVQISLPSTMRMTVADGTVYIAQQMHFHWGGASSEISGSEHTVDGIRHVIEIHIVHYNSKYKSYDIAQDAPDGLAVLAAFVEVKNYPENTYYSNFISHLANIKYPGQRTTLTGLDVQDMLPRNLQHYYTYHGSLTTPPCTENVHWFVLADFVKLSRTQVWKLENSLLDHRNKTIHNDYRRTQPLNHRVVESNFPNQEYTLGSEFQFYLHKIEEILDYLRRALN
CAXIII, sequence (Q8N1Q1 whole entry): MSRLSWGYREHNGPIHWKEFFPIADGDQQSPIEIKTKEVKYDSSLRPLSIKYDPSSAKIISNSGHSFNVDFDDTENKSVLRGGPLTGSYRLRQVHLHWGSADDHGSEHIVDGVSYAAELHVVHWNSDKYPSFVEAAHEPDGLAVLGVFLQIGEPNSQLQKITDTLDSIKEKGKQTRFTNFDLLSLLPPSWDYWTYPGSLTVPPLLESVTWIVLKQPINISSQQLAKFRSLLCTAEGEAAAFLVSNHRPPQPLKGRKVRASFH
CAXIV, sequence (Q9ULX7 16-337): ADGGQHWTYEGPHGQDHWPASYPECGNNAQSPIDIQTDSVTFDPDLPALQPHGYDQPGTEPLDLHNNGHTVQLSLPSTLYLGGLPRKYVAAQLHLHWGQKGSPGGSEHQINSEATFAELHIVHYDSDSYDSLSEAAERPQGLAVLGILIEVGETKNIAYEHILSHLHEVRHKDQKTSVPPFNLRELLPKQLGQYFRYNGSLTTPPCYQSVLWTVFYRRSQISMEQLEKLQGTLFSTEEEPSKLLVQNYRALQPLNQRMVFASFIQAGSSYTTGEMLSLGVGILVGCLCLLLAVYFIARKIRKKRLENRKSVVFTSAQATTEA

Compound	ΔGintr CAI (CAI) [kcal/mol]	ΔGobs CAI (CAI) [kcal/mol]	ΔGintr CAII (CAII) [kcal/mol]	ΔGobs CAII (CAII) [kcal/mol]	ΔGintr CAVB (CAVB) [kcal/mol]	ΔGobs CAVB (CAVB) [kcal/mol]	ΔGintr CAVI (CAVI) [kcal/mol]	ΔGobs CAVI (CAVI) [kcal/mol]	ΔGobs CAVII (CAVII) [kcal/mol]	ΔGintr CAIX (CAIX)	ΔGobs CAIX (CAIX) [kcal/mol]	ΔGintr CAXIII (CAXIII) [kcal/mol]	ΔGobs CAXIII (CAXIII) [kcal/mol]	ΔGintr CAXIV (CAXIV) [kcal/mol]	ΔGobs CAXIV (CAXIV) [kcal/mol]	f RSO2NH-, fraction of deprotonated sulfonamide [1] [%]	pKa [1]	ΔGintr CAVA (CAVA) [kcal/mol]	ΔGobs CAVA (CAVA) [kcal/mol]	ΔGintr CAVII (CAVII) [kcal/mol]	also measured
COC(=O)c1cc(S(N)(=O)=O)c(Cl)cc1SCCc1ccccc1 [Compound 5d, Methyl 4-chloro-2-(2-phenylethylsulfanyl)-5-sulfamoylbenzoate]	-11.1	-7.74	-14.5	-10.7	-15.6	-11.9	-13.4	-8.63	-10.8	-15.3 kcal/mol	-11.2	-14.9	-11.5	-14.9	-11	0.5	9.3	–	–	–	ΔGintr CAIV (CAIV): -12.5 kcal/mol; ΔGobs CAIV (CAIV): -8.48 kcal/mol
COC(=O)c1cc(S(N)(=O)=O)c(Cl)cc1S(=O)(=O)CCc1ccccc1 [Compound 9d, Methyl 4-chloro-2-(2-phenylethylsulfonyl)-5-sulfamoylbenzoate]	-11.3	-9.2	-15	-12.5	–	-12.7	-14.2	-10.8	-12.9	–	-12.2	-14.2	-12.1	-15.2	-12.6	3.8	8.4	-11.8	-9.51	-15.5	ΔGintr CAIII (CAIII): -11.4 kcal/mol; ΔGobs CAIII (CAIII): -8.56 kcal/mol
COC(=O)c1cc(S(N)(=O)=O)c(Br)cc1S(=O)(=O)c1ccccc1 [Compound 10a, Methyl 2-(benzenesulfonyl)-4-bromo-5-sulfamoylbenzoate]	-11.3	-9.2	-14.8	-12.3	-14.2	-11.8	-13.4	-9.89	-13	-62.0	-12	-13.9	-11.9	-14.9	-12.3	3.8	8.4	–	–	-15.6	–
COC(=O)c1cc(S(N)(=O)=O)c(SC2CCCCC2)cc1Br [Compound 4b, Methyl 2-bromo-4-(cyclohexylsulfanyl)-5-sulfamoylbenzoate]	-11.1	-7.34	-13.7	-9.51	-11.9	-7.77	-14.1	-8.87	-9.44	-18.5 kcal/mol	-14.1	-14.4	-10.6	-15.2	-10.9	0.3	–	≥ -9.2	≥ -5.26	-13.7	ΔGintr CAIII (CAIII): -10.7 kcal/mol; ΔGobs CAIII (CAIII): -6.14 kcal/mol
COC(=O)c1cc(S(N)(=O)=O)c(SCc2ccccc2)cc1Cl [Compound 3c, Methyl 4-(benzylsulfanyl)-2-chloro-5-sulfamoylbenzoate]	-10.9	-7.31	-13.9	-9.87	-11.5	-7.53	-14.2	-9.15	-9.68	-16.4 kcal/mol	-12.1	-14.1	-10.5	-14.6	-10.5	0.3	9.5	≥ -9.06	≥ -5.26	-13.8	ΔGintr CAIII (CAIII): -10.3 kcal/mol; ΔGobs CAIII (CAIII): -5.81 kcal/mol
COC(=O)c1cc(S(N)(=O)=O)c(SC2CCCCCCCCCCC2)cc1Cl [Compound 3e, Methyl 2-chloro-4-(cyclododecylsulfanyl)-5-sulfamoylbenzoate]	-10.7	-7	-13.3	-9.08	-10	-5.93	-13.3	-8.08	-7.77	-17.7 kcal/mol	-13.3	-14.5	-10.8	-14.8	-10.5	0.3	9.6	≥ -9.2	≥ -5.26	-12	ΔGintr CAIII (CAIII): ≥ -9.82 kcal/mol; ΔGobs CAIII (CAIII): ≥ -5.26 kcal/mol; ΔGintr CAIV (CAIV): -14 kcal/mol; ΔGobs CAIV (CAIV): -9.51 kcal/mol
COC(=O)c1cc(S(N)(=O)=O)c(Cl)cc1S(=O)(=O)C1CCCCC1 [Compound 9b, Methyl 4-chloro-2-cyclohexylsulfonyl-5-sulfamoyl-benzoate]	-12	-10.2	-15.3	-13	-15.1	-13	-13.7	-10.5	-13.8	–	-12.8	-14	-12.1	-15.4	-13	5.9	8.2	-10.9	-8.94	-16.2	ΔGintr CAIV (CAIV): -12 kcal/mol; ΔGobs CAIV (CAIV): -9.51 kcal/mol

— publication PMC8745178, “Methyl 2-Halo-4-Substituted-5-Sulfamoyl-Benzoates as High Affinity and Selective Inhibitors of Carbonic Anhydrase IX” (International Journal of Molecular Sciences, 2021)
